Earlier results as cited in patent US6676963B1, “Ligand-targeted emulsions carrying bioactive agents” (Barnes-Jewish Hospital, priority 2000, dated 2004).
Read-outs that look alike come from different tables or passages of the source.

Conditions: for solubility in water / buffer (in words): water or aqueous buffer

solubility in water / buffer (in words)	solubility in lipid emulsions (in words) (lipid emulsions such as Intralipid or Liposyn)	solubility in water / buffer (in words) (listed as paclitaxel)	Structure (SMILES)
highly water soluble	–	–	COc1cccc2c1C(=O)c1c(O)c3c(c(O)c1C2=O)C[C@@](O)(C(=O)CO)C[C@@H]3O[C@H]1C[C@H](N)[C@H](O)[C@H](C)O1 [Doxorubicin, doxorubicin]
insoluble in water	insoluble in lipid emulsions	highly insoluble in buffer	CC(=O)O[C@H]1C(=O)[C@@]2(C)[C@H]([C@H](OC(=O)c3ccccc3)[C@]3(O)C[C@H](OC(=O)[C@H](O)[C@@H](NC(=O)c4ccccc4)c4ccccc4)C(C)=C1C3(C)C)[C@]1(OC(C)=O)CO[C@@H]1C[C@@H]2O [taxol, paclitaxel]
